# Reference: patent publication US20220265694A1, “COMPOSITIONS AND METHODS FOR TREATING AN INFECTION” (CMPD LICENSING, LLC, priority 2016, published 2022)
# Read-outs that look alike come from different tables or passages of the source.
# What was measured:
# Citrobacter freundii = assay: Expected efficacy of antibiotic agents; details: expected efficacy against Citrobacter freundii; Gram: neg
# [1] = system: Acinetobacter calcoaceticus; assay: Expected efficacy of antibiotic agents; details: expected efficacy against Acinetobacter calcoaceticus; Gram: neg
# [2] = system: Haemophilus parainfluenzae; assay: Expected efficacy of antibiotic agents; details: expected efficacy against Haemophilus parainfluenzae; Gram: neg
# Enterococcus faecalis = assay: Expected efficacy of antibiotic agents; details: expected efficacy against Enterococcus faecalis; Gram: pos
# Enterobacter sakazakii = assay: Expected efficacy of antibiotic agents; details: expected efficacy against Enterobacter sakazakii; Gram: neg
# Proteus vulgaris = assay: Expected efficacy of antibiotic agents; details: expected efficacy against Proteus vulgaris; Gram: neg
# Klebsiella pneumoniae = assay: Expected efficacy of antibiotic agents; details: expected efficacy against Klebsiella pneumoniae; Gram: neg
# [3] = system: Staphylococcus aureus (MSSA); assay: Expected efficacy of antibiotic agents; details: expected efficacy against Staphylococcus aureus (MSSA); Gram: pos
# Chlamydia pneumoniae = assay: Expected efficacy of antibiotic agents; details: expected efficacy against Chlamydia pneumoniae; Gram: n/a
# Acinetobacter baumannii = assay: Expected efficacy of antibiotic agents; details: expected efficacy against Acinetobacter baumannii; Gram: neg
# Streptococcus agalactiae = assay: Expected efficacy of antibiotic agents; details: expected efficacy against Streptococcus agalactiae; Gram: pos
# Neisseria meningitidis = assay: Expected efficacy of antibiotic agents; details: expected efficacy against Neisseria meningitidis; Gram: neg
# Pseudomonas fluorescens = assay: Expected efficacy of antibiotic agents; details: expected efficacy against Pseudomonas fluorescens; Gram: neg
# Bartonella bacilliformis = assay: Expected efficacy of antibiotic agents; details: expected efficacy against Bartonella bacilliformis; Gram: neg
Structure (SMILES),Efficacy (Citrobacter freundii),Efficacy [1],Efficacy [2],Efficacy (Enterococcus faecalis),Efficacy (Enterobacter sakazakii),Efficacy (Proteus vulgaris),Efficacy (Klebsiella pneumoniae),Efficacy [3],Efficacy (Chlamydia pneumoniae),Efficacy (Acinetobacter baumannii),Efficacy (Streptococcus agalactiae),"Efficacy (Rickettsiae; expected efficacy against Rickettsiae, Gram: neg)",Efficacy (Neisseria meningitidis),"Efficacy (Clostridium perfringens; expected efficacy against Clostridium perfringens, Gram: anaer)",Efficacy (Pseudomonas fluorescens),Efficacy (Bartonella bacilliformis),Efficacy (Brucella species),Efficacy (Rickettsiae),Efficacy (Clostridium perfringens)
CO/N=C(\C(=O)N[C@@H]1C(=O)N2C(C(=O)O)=C(CSc3nc(=O)c(=O)[nH]n3C)CS[C@H]12)c1csc(N)n1 [Ceftriaxone],yes,no,yes,no,yes,yes,yes,yes,no,no,yes,no,yes,yes,,,,,
CN[C@H](CC(C)C)C(=O)N[C@H]1C(=O)N[C@@H](CC(N)=O)C(=O)N[C@H]2C(=O)N[C@H]3C(=O)N[C@H](C(=O)N[C@H](C(=O)O)c4cc(O)cc(O)c4-c4cc3ccc4O)[C@H](O)c3ccc(c(Cl)c3)Oc3cc2cc(c3O[C@@H]2O[C@H](CO)[C@@H](O)[C@H](O)[C@H]2O[C@H]2C[C@](C)(N)[C@H](O)[C@H](C)O2)Oc2ccc(cc2Cl)[C@H]1O [Vancomycin],no,no,no,yes,no,no,no,yes,no,no,yes,,no,,no,no,no,no,no
